# Measurements from patent US6492381B1, “Tricyclic carbamate compounds useful for inhibition of G-protein function and for treatment of proliferative diseases” (Schering Corp., priority 1993, dated 2002).
# Like-named read-outs stand apart in the source and are kept apart here.
# Assays:
# [1] = biological target: T1, farnesyl protein transferase (FPT) (Rattus norvegicus, UniProt Q02293+Q04631); assay: In vitro enzyme assay: inhibition of farnesyl protein transferase; type: biochemical
# T1 construct: were partially purified from rat brain by ammonium sulfate fractionation followed by Q-Sepharose; from tissue; host or cells: rat brain
# Protocol: 1. In vitro enzyme assays: Inhibition of farnesyl protein transferase and geranylgeranyl protein transferase.
# Human farnesyl protein transferase was also expressed in E. coli, using cDNA clones encoding both the α and β subunits. […] Two forms of val^12-Ha-Ras protein were prepared as substrates for these enzymes, differing in their carboxy terminal sequence. One form terminated in cysteine-valine-leucine-serine (Ras-CVLS) the other in cystein-valine-leucine-leucine (Ras-CVLL). Ras-CVLS is a substrate for the farnesyl protein transferase while Ras-CVLL is a substrate for geranylgeranyl protein transferase I. The cDNAs encoding these proteins were constructed so that the proteins contain an amino-terminal extension of 6 histidine residues. Both proteins were expressed in Escherichia coli and purified using metal chelate affinity chromatography. The radiolabelled isoprenyl pyrophosphate substrates, [^3H]farnesyl pyrophosphate and [^3H]geranylgeranyl pyrophosphate, were purchased from DuPont/New England Nuclear.
# The reaction was allowed to proceed for 30 minutes at room temperature and then stopped with 0.5 ml of 4% sodium dodecyl sulfate (SDS) followed by 0.5 ml of cold 30% trichloracetic acid (TCA). Samples were allowed to sit on ice for 45 minutes and precipitated Ras protein was then collected on GF/C filter paper mats using a Brandel cell harvester. […] Percent inhibition was calculated relative to the DMSO vehicle control.
# [2] = test system: T24-BAG4 human bladder carcinoma cells expressing an activated H-ras gene; assay: Cell Mat assay: inhibition of tumor cell growth; type: cell-based; details: for IC50: tIC50
# Protocol: (§1) Normal human HEPM fibroblasts were planted in 3.5 cm dishes at a density of 5×10^4 cells/dish in 2 ml growth medium, and incubated for 3-5 d to achieve confluence. Medium was aspirated from each dish and the indicator tumor cells, T24-BAG4 human bladder carcinoma cells expressing an activated H-ras gene, were planted on top of the fibroblast monolayer at a density of 2×10^3cells/dish in 2 ml growth medium, and allowed to attach overnight. Compound-induced colony inhibition was assayed by addition of serial dilutions of compound directly to the growth medium 24 h after tumor cell planting, and incubating cells for an additional 14 d to allow colony formation. Assays were terminated by rinsing monolayers twice with phosphate-buffered saline (PBS), fixing the monolayers with a 1% glutaraldehyde solution in PBS, then visualizing tumor cells by staining with X-Gal (Price, J., et al., Lineage analysis in the vertebrate nervous system by retrovirus-mediated gene transfer, Proc. Natl. Acad. Sci.84, 156-160(1987)). […] Both IC50 values were obtained by determining the density of tumor cells and mat cells by visual inspection and enumeration of cells per colony and the number of colonies under the microscope. The therapeutic index of the compound was quantitatively expressed as the ratio of mIC50/tIC50, with values greater than one indicative of tumor target specificity.
# [3] = test system: Normal human HEPM fibroblasts; assay: Cell Mat assay: inhibition of normal cell growth; type: cell-based; details: mIC50, normal cell monolayer
# Protocol: as §1
# [4] = Ras-CVLS farnesylation, partially purified rat brain FPT, read-out: FPT IC50
SMILES,"IC50 [1, 4]",further results
O=C(Oc1ccc[n+]([O-])c1)N1CCN(C2c3ccc(Cl)cc3CCc3cc(Br)cnc32)CC1 (stereo not drawn) [Compound 801.00],–,IC50 [1]: 0.28 µM
CCOC(=O)N1CCC(=C2c3ccc(Cl)cc3C=Cc3cccnc32)CC1 [Compound 666.00],10.8 µM,–
CN1CCC(OC(=O)N2CCN(C3c4ccc(Cl)cc4CCc4cccnc43)CC2)CC1 (stereo not drawn) [Compound 802.00],> 1.3 µM,"FPT inhibition, second line of the FPT IC50 (μM) column ([1]; (1.3), the values are: FPT inhibition at 1.3 µM): 35%"
"CCOC(=O)N1CCN([C@H]2c3ccc(Cl)cc3CCc3cccnc32)CC1 [Compound 604.00, (−) Ethyl 4-(8-chloro-6,11-dihydro-11H-benzo[5,6]-cyclohepta[1,2-b]pyridin-11(S)-yl)-1-piperazinecarboxylate]",10.5 µM,–
"CCOC(=O)N1CCC(C2c3cc(CC)c(Cl)cc3C=Cc3cccnc32)CC1 (stereo not drawn) [Compound 622.00, 8-chloro-11-(1-ethoxycarbonyl-4-piperidinyl)-9-ethyl-11H-benzo[5,6]cyclohepta[1,2-b]pyridine]",10.5 µM,–
"CCOC(=O)N1CCC(=C2c3ccc(Cl)cc3CCc3c2ncc(Br)c3O)CC1 [Compound 660.00, Ethyl 4-[3-bromo-4-hydroxy-8-chloro-5,6-dihydro-11H-benzo[5,6]cyclohepta[1,2-b]pyridin-11-ylidene]-1-piperidine Carboxylate]",–,inhibition at 13 µM ([1]; @ 13 μM): 22%
"O=C(Oc1cccnc1)N1CCC(=C2c3ccc(Cl)cc3CCc3c(Cl)ccnc32)CC1 [Compound 644.00, 3-pyridyl 4-(4,8-dichloro-5,6-dihydro-11H-benzo[5,6]cyclohepta[1,2-b]pyridin-11-ylidene)-1-piperidine Carboxylate]",1.03 µM,–
"O=C(Oc1cccnc1)N1CCC(=C2c3ccc(Cl)cc3CCc3c(O)ccnc32)CC1 [Compound 648.00, 3-pyridyl 4-[4-hydroxy-8-chloro-5,6-dihydro-11H-benzo[5,6]cyclohepta[1,2-b]pyridin-11-ylidene]-1-piperidine Carboxylate]",6.7 µM,–
"CCOC(=O)N1CCC(=C2c3ccc(Cl)cc3CCc3c(O)ccnc32)CC1 [Compound 646.00, Ethyl 4-[4-hydroxy-8-chloro-5,6-dihydro-11H-benzo[5,6]cyclohepta[1,2-b]pyridin-11-ylidene]-1-piperidine Carboxylate]",–,inhibition at 15 µM ([1]; @ 15 μM): 30%
O=C(Oc1ccccc1)N1CCN(C2c3ccc(Cl)cc3C=Cc3cccnc32)CC1 (stereo not drawn) [Example 32],–,"IC50 [1]: 0.88 µM; IC50 ([2]; Homo sapiens): 25 µM; IC50 ([3]; Homo sapiens, Fibroblast): 25 µM"
"O=C(Oc1cccnc1)N1CCC(=C2c3ccc(Cl)cc3CCc3c(On4nnc5ccccc54)ccnc32)CC1 [Compound 656.00, 3-pyridyl 4-[4-[(1H-benzotriazol-1-yl)oxy]-8-chloro-5,6-dihydro-11H-benzo[5,6]cyclohepta[1,2-b]pyridin-11-ylidene[-1-piperidine Carboxylate]",0.71 µM,–
"O=C(Oc1cccnc1)N1CCC(=C2c3ccc(Cl)cc3CCc3c2ncc(Br)c3O)CC1 [Compound 662.00, 3-pyridyl 4-[3-bromo-4-hydroxy-8-chloro-5,6-dihydro-11H-benzo[5,6]cyclohepta[1,2-b]pyridin-11-ylidene]-1-piperidine Carboxylate]",3.8 µM,–
O=C(Oc1cccnc1)N1CCC(=C2c3ccc(Cl)cc3C=Cc3cccnc32)CC1 [Compound 664.00],1.46 µM,–
CN1CCCC(OC(=O)N2CCN(C3c4ccc(Cl)cc4CCc4cc(Br)cnc43)CC2)C1 (stereo not drawn) [Compound 805.00],0.3 µM,–
CN1CCCC(OC(=O)N2CCN(C3c4ccc(Cl)cc4CCc4cccnc43)CC2)C1 (stereo not drawn) [Compound 804.00],2.1 µM,–
O=C(Oc1ccc[n+]([O-])c1)N1CCN(C2c3ccc(Cl)cc3CCc3cccnc32)CC1 (stereo not drawn) [Compound 800.00],3.7 µM,–
"O=C(OCc1ccccc1)N1CCN(C2c3ccc(Cl)cc3CCc3cccnc32)CC1 (stereo not drawn) [Compound 614.00, Phenylmethyl 4-(8-chloro-6,11-dihydro-5H-benzo[5,6]-cyclohepta[1,2-b]pyridin-11-yl)-1-piperazinecarboxylate]",> 20 µM,"selective antiproliferative activity against Ras-transformed cells versus normal cells [2]: little; IC50 ([2]; Homo sapiens): 50 µM; IC50 ([3]; Homo sapiens, Fibroblast): > 50 µM"
"CCOC(=O)N1CCN([C@@H]2c3ccc(Cl)cc3CCc3cccnc32)CC1 [Compound 602.00, (+) Ethyl 4-(8-chloro-6,11-dihydro-11H-benzo[5,6]-cyclohepta[1,2-b]pyridin-11(R)-yl)-1-piperazine Carboxylate]",34.1 µM,–
CCOC(=O)N1CCC(C2c3ccc(Cl)cc3C=Cc3c(Cl)ccnc32)CC1 (stereo not drawn) [Compound 636.00],7.4 µM,–
CCOC(=O)N1CCC(F)(C2c3ccc(Cl)cc3CCc3cccnc32)CC1 (stereo not drawn) [Compound 520.00],10.4 µM,–

# The next lines start with results.
"IC50 [1, 4]",SMILES,further results
2.17 µM,CCOC(=O)N1CCC(=C2c3ccc(Cl)cc3CCc3cc(Br)cnc32)CC1 [Compound 642.00],"selective antiproliferative activity against Ras-transformed cells versus normal cells [2]: little; IC50 ([2]; Homo sapiens): 50 µM; IC50 ([3]; Homo sapiens, Fibroblast): > 50 µM"
37.8 µM,CCOC(=O)N1CCC(=C2c3cc(Cl)c(Cl)cc3CCc3cccnc32)CC1 [Compound 555.00],–
11.5 µM,"CCOC(=O)N1CCC(=C2c3ccc(Cl)cc3CCc3cc(OC)cnc32)CC1 [Compound 658.00, 8-chloro-3-methoxy-11-(1-ethoxycarbonyl-4-piperidylidene)-6,11-dihydro-5H-benzo[5,6]-cyclohepta[1,2-b]pyridine]",–
80 µM,CCCCCCOC(=O)N1CCC(=C2c3ccc(Cl)cc3CCc3cccnc32)CC1 [Compound 590.00],–
8 µM,O=C(OCc1ccccc1)N1CCC(=C2c3ccc(Cl)cc3CCc3cccnc32)CC1 [Compound 570.00],–
10.5 µM,CCOC(=O)N1CCC(=C2c3ccc(Cl)cc3CCc3c(Cl)ccnc32)CC1 [Compound 596.00],–
17.6 µM,COC(=O)N1CCC(=C2c3ccc(Cl)cc3CCc3cccnc32)CC1 [Compound 560.00],–
7 µM,CCOC(=O)N1CCC(=C2c3ccc(Br)cc3CCc3cccnc32)CC1 [Compound 540.00],–
7.1 µM,CCOC(=O)N1CCC(=C2c3ccc(Cl)cc3CCc3cc(C)cnc32)CC1 [Compound 545.00],–
37.6 µM,"CCOC(=O)N1CCC(=C2c3ccc(Cl)cc3CCc3ccc[n+]([O-])c32)CC1 [Compound 515.00, Ethyl 4-(8-chloro-5,6-dihydro-11H-benzo[5,6]cyclohepta[1,2-B]pyridin-11-ylidene)-1-piperidinecarboxylate N-oxide]",selective antiproliferative activity against Ras-transformed cells versus normal cells [2]: little; IC50 [2]: 75 µM; IC50 [3]: > 100 µM
